# Results as given in patent US9895422B2, “Combination of dopamine agonists plus first phase insulin secretagogues for the treatment of metabolic disorders” (VeroScience LLC, priority 2009, dated 2018).
# Where a name gives a salt, the structure may show the parent alone.
# Legend:
# [1] = tested on: Male Syrian hamsters known to develop insulin resistance and glucose intolerance; experiment: Glucose tolerance test (GTT), similarly designed experiment with insulin as first phase insulin secretagogue; type: in vivo, Syrian hamster
# Experimental: Male Syrian hamsters known to develop insulin resistance and glucose intolerance were purchased at 4 weeks of age and kept on rodent diet for 10 weeks at 72 degrees F. and a 14 hr:10 hr daily light:dark cycle. When animals were 14 weeks of age on this daily photoperiod (known to be insulin resistant and glucose intolerant under these conditions), bromocriptine mesylate was administered intraperitoneally (IP) for 2 weeks at 4 mg/kg per hamster 13 hours after light onset to half of the animals, while the other half received vehicle injections for 2 weeks.
# After 2 weeks of treatment both Bromocriptine and vehicle groups were divided into two groups for a total of 4 groups: 1. Vehicle for 2 weeks and Vehicle at initiation of a glucose tolerance test (GTT); 2. […] Bromocriptine for 2 weeks and Vehicle at GTT; 4.
# Blood was drawn from the jugular vein and blood glucose level was measured every 30 minutes for 2 hours after the glucose load administration.
# [2] = tested on: Male Syrian hamsters known to develop insulin resistance and glucose intolerance; experiment: Glucose tolerance test (GTT) after 2 weeks of bromocriptine, with or without Exendin-4 at the GTT; type: in vivo, Syrian hamster; details: bromocriptine mesylate 4 mg/kg IP for 2 weeks, vehicle at GTT; 3 g/kg glucose; P<0.09
Compound,"reduction of glucose AUC over two hours after glucose administration ([1]; insulin 240 ng/kg IP immediately prior to glucose administration, P=0.64)","reduction of glucose AUC over two hours after glucose administration ([1]; bromocriptine for 2 weeks, insulin experiment, P=0.23) [%]",reduction of blood glucose Area Under Curve (AUC) during the GTT over two hours after glucose administration [2] [%]
insulin,not significantly reduced,–,–
"CC(C)C[C@H]1C(=O)N2CCC[C@H]2[C@]2(O)O[C@](NC(=O)[C@@H]3C=C4c5cccc6[nH]c(Br)c(c56)C[C@H]4N(C)C3)(C(C)C)C(=O)N12 [Bromocriptine, bromocriptine mesylate]",–,28,21
